Reference: patent US20180282735A1, “PHARMACEUTICAL COMPOSITION FOR NEURODEGENERATIVE BRAIN DISEASE AND SCREENING METHOD FOR THE SAME” (MACROGEN, INC., priority 2017, published 2018)

Tests used:
HEK293 tau-BiFC cells = type: cell-based; details: for level of tau phosphorylation: HEK293 Tau-BiFC cell line, FIG. 5b; for tau accumulation (tau-BiFC): HEK293 tau-BiFC, FIG. 5
Text: (§1) The establishment of the HEK293/tau-BiFC cell line was previously described (Tak H, Hague M M, Kim M J, Lee J H, Baik J H, Kim Y et al. Himolecular fluorescence complementation; lighting-up Tau-Tau interaction in living cells. PLOS One 2013; 8: e81682). Venus fluorescence protein amino-terminal fragment (VN 173) and carboxyl-terminal fragment (VC 155), which are independently non-fluorescent, were fused to full-length tau proteins. For neuronal cell expression, tau-BiFC constructs (pCMV6-hTau40-VN173 and pCMV6-hTau-VC155) were transfected into SH-SY5Y. SH-SY5Y/tau-BiFC stable cells were selected using Geneticin (200 μg/ml). […] All established cell lines were grown in Dulbecco's modified eagle medium containing 10% fetal bovine serum, […] and 1 μg/ml of Geneticin at 37° C. in a humidified atmosphere containing 5% CO2.
(§2) For microscopic image analysis, HEK293 tau-BiFC and SH-SY5Y tau-BiFC cells were plated onto a black 384-well plate. The next day, tau-BiFC cells were treated with okadaic acid (O8010, Sigma), cyclosporine A (C3662, Sigma) or deltamethrin (D9315, Sigma) at various concentrations. After incubation for 29 hours, the plate was imaged using the Operetta® high contents imaging system (PerkinElmer). The cellular intensities of tau-BiFC fluorescence were analyzed using the Harmony® 3.1 analysis software. Each experiment was performed in triplicate. The bar graphs for BiFC intensity indicate the means ±SEM from three independent experiments.

SH-SY5Y tau-BiFC cells = type: cell-based; details: for level of tau phosphorylation: SH-SY5Y Tau-BiFC cell line, FIG. 5b; for dose dependence of tau phosphorylation level: SH-SY5Y Tau-BiFC, various concentrations, 29 hours, FIG. 5c; for tau accumulation (tau-BiFC): SH-SY5Y tau-BiFC, FIG. 5
Text: as §1, §2

PP2B = molecular target: T1, PP2B (Homo sapiens, UniProt Q08209); details: by binding to cyclophilin or FKBP respectively; cited from earlier work
T1 construct: endogenous in cells; host or cells: SH-SY5Y/tau-BiFC and HEK293/tau-BiFC cells

| Molecule | level of tau phosphorylation (HEK293 tau-BiFC cells) | tau accumulation (tau-BiFC) (HEK293 tau-BiFC cells) | level of tau phosphorylation (SH-SY5Y tau-BiFC cells) | dose dependence of tau phosphorylation level (SH-SY5Y tau-BiFC cells) | tau accumulation (tau-BiFC) (SH-SY5Y tau-BiFC cells) | intensity of tau phosphorylation (HEK293 tau-BiFC cells; HEK 293 cell line, FIG. 5d) | enzyme activity inhibition (PP2B) |
| --- | --- | --- | --- | --- | --- | --- | --- |
| CC1(C)[C@H](C(=O)O[C@H](C#N)c2cccc(Oc3ccccc3)c2)[C@@H]1C=C(Br)Br [deltamethrin] | increased | increase of tau accumulation | increased | declining trend after the threshold of 3 μM | increase of tau accumulation | – | – |
| C=C1[C@@H](O)[C@@H]2O[C@]3(CC[C@H](/C=C/[C@@H](C)[C@@H]4CC(C)=C[C@@]5(O[C@H](C[C@@](C)(O)C(=O)O)CC[C@H]5O)O4)O3)CC[C@H]2O[C@@H]1[C@@H](O)C[C@H](C)[C@H]1O[C@@]2(CCCCO2)CC[C@H]1C [okadaic acid] | increased | increase of tau accumulation | increased | elevated the level of tau phosphorylation in a dose-dependent manner | increase of tau accumulation | higher intensity of tau phosphorylation | – |
| cyclosporine A | increased | increase of tau accumulation | increased | elevated the level of tau phosphorylation in a dose-dependent manner | increase of tau accumulation | – | inhibits specifically enzyme activity |
